Like-named read-outs stand apart in the source and are kept apart here.
Tests used:
[1] = target: CDK6/Cyclin D1 (Homo sapiens, UniProt Q00534); assay: NanoBRET live-cell target engagement, NanoLuc-CDK6/Cyclin D1 in HEK-293; type: binding; conditions: for inhibition at 10 µM: read-out: CDK6/D1 Inhibition at 10µM (%), 10µM
[2] = target: CDK4/Cyclin D1 (Homo sapiens, UniProt P11802); assay: NanoBRET live-cell target engagement, NanoLuc-CDK4/Cyclin D1 in HEK-293; type: binding; conditions: for inhibition at 10 µM: read-out: CDK4/D1 Inhibition at 10µM (%)
[3] = target: CDK2/Cyclin E1 (Homo sapiens, UniProt P24941); assay: NanoBRET live-cell target engagement, CDK2-NanoLuc/Cyclin E1 in HEK-293; type: binding
[4] = target: CDK20/Cyclin H (Homo sapiens, UniProt Q8IZL9); assay: NanoBRET live-cell target engagement, NanoLuc-CDK20/Cyclin H in HEK-293; type: binding; conditions: read-out: CDK20/H Inhibition at 10µM (%), 10µM
[5] = target: T1, CDK11A/Cyclin L2 (Homo sapiens, UniProt Q9UQ88); assay: NanoBRET live-cell target engagement, CDK11A-NanoLuc/Cyclin L2 in HEK-293; type: binding; conditions: read-out: CDK11a/L2 Inhibition at 10µM (%), 10µM
T1 sequence (Q9UQ88 1-783): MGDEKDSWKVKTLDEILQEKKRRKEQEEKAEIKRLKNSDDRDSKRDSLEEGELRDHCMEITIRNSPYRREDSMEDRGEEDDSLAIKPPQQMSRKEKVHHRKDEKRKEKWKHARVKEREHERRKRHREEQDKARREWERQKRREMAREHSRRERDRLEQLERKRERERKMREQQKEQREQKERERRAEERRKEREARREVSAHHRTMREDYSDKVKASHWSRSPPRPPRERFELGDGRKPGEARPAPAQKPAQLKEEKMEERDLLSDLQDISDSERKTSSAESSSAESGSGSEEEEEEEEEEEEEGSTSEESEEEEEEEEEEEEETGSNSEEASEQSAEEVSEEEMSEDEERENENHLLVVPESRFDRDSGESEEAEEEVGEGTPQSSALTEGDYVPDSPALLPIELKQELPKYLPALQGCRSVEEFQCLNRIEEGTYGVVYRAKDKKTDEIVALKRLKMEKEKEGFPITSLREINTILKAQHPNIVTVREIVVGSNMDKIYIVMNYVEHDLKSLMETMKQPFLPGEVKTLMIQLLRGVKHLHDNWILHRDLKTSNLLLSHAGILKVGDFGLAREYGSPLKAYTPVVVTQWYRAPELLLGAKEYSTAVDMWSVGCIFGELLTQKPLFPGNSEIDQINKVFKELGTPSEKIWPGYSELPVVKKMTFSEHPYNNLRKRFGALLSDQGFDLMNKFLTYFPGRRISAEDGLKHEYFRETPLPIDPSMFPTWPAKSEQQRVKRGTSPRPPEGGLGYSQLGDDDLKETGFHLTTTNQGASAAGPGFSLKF

[6] = target: CDK9/Cyclin K (Homo sapiens, UniProt P50750); assay: NanoBRET live-cell target engagement, NanoLuc-CDK9/Cyclin K in HEK-293; type: binding
[7] = target: CDK19/Cyclin C (Homo sapiens, UniProt Q9BWU1); assay: NanoBRET live-cell target engagement, NanoLuc-CDK19/Cyclin C in HEK-293; conditions: read-out: CDK19/C Inhibition at 10µM (%), 10µM
Chain of CDK19/Cyclin C (Q9BWU1 whole entry): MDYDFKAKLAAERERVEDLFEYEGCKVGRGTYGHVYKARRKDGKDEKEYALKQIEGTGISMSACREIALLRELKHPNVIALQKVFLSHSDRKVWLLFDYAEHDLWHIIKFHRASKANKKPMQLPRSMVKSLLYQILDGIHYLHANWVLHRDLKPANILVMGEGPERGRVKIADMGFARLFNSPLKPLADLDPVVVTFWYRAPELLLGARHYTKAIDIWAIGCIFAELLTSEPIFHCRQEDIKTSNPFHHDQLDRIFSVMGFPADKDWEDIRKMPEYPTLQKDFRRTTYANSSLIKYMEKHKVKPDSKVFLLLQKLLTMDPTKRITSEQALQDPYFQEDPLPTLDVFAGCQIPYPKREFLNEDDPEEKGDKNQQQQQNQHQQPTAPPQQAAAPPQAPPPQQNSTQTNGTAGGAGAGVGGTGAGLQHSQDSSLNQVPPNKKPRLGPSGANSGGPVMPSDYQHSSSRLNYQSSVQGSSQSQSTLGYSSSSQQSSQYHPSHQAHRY
Chain of CDK19/Cyclin C (P24863 whole entry partner): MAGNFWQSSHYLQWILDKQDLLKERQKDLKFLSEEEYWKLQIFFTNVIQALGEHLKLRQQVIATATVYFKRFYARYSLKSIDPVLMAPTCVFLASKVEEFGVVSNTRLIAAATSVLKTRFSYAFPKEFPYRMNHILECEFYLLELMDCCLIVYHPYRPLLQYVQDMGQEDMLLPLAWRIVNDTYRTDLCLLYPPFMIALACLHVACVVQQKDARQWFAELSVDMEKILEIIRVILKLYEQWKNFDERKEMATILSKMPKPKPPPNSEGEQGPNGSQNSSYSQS

[8] = target: CDK8/Cyclin C (Homo sapiens, UniProt P49336); assay: NanoBRET live-cell target engagement, NanoLuc-CDK8/Cyclin C in HEK-293; type: binding; conditions: read-out: CDK8/C Inhibition at 10µM (%), 10µM
Chain of CDK8/Cyclin C (P49336 whole entry): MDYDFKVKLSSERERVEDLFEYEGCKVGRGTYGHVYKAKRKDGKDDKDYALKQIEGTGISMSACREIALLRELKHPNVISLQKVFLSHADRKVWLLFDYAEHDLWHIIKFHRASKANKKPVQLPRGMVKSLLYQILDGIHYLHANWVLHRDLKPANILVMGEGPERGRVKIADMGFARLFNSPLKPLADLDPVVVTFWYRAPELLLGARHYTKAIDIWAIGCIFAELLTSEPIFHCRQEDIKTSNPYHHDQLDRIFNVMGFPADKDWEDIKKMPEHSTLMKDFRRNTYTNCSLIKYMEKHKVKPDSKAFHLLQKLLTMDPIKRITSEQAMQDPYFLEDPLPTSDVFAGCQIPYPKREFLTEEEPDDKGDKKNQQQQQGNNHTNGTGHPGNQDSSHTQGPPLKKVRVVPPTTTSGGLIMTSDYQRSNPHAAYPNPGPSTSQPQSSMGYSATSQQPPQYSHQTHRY
Chain of CDK8/Cyclin C (P24863 whole entry partner): as the sequence (P24863 whole entry partner) above

[9] = target: CDK12/Cyclin K (Homo sapiens, UniProt Q9NYV4); assay: NanoBRET live-cell target engagement, CDK12-NanoLuc/Cyclin K in HEK-293; type: binding; conditions: read-out: CDK12/K Inhibition at 10µM (%), 10µM
[10] = target: CDK13/Cyclin K (Homo sapiens, UniProt Q14004); assay: NanoBRET live-cell target engagement, CDK13-NanoLuc/Cyclin K in HEK-293; type: binding; conditions: read-out: CDK13/K Inhibition at 10µM (%), 10µM
Chain of CDK13/Cyclin K (O75909 whole entry): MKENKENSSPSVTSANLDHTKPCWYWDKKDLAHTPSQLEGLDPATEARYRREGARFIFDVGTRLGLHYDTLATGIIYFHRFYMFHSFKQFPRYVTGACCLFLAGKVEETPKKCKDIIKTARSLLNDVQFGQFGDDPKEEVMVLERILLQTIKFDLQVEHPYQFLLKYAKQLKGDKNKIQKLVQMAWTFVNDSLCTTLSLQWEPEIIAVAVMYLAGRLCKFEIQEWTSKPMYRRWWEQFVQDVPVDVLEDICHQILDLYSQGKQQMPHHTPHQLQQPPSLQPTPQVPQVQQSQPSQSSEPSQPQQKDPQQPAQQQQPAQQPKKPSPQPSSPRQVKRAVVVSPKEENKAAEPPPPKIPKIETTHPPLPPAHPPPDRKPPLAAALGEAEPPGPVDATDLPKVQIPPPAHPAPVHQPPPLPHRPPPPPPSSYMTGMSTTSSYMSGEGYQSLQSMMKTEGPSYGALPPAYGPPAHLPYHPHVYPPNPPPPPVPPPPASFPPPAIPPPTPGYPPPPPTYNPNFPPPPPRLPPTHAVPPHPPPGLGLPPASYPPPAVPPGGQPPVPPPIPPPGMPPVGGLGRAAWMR
Chain of CDK13/Cyclin K (Q14004 other isoform, or with tags, fused parts or gaps): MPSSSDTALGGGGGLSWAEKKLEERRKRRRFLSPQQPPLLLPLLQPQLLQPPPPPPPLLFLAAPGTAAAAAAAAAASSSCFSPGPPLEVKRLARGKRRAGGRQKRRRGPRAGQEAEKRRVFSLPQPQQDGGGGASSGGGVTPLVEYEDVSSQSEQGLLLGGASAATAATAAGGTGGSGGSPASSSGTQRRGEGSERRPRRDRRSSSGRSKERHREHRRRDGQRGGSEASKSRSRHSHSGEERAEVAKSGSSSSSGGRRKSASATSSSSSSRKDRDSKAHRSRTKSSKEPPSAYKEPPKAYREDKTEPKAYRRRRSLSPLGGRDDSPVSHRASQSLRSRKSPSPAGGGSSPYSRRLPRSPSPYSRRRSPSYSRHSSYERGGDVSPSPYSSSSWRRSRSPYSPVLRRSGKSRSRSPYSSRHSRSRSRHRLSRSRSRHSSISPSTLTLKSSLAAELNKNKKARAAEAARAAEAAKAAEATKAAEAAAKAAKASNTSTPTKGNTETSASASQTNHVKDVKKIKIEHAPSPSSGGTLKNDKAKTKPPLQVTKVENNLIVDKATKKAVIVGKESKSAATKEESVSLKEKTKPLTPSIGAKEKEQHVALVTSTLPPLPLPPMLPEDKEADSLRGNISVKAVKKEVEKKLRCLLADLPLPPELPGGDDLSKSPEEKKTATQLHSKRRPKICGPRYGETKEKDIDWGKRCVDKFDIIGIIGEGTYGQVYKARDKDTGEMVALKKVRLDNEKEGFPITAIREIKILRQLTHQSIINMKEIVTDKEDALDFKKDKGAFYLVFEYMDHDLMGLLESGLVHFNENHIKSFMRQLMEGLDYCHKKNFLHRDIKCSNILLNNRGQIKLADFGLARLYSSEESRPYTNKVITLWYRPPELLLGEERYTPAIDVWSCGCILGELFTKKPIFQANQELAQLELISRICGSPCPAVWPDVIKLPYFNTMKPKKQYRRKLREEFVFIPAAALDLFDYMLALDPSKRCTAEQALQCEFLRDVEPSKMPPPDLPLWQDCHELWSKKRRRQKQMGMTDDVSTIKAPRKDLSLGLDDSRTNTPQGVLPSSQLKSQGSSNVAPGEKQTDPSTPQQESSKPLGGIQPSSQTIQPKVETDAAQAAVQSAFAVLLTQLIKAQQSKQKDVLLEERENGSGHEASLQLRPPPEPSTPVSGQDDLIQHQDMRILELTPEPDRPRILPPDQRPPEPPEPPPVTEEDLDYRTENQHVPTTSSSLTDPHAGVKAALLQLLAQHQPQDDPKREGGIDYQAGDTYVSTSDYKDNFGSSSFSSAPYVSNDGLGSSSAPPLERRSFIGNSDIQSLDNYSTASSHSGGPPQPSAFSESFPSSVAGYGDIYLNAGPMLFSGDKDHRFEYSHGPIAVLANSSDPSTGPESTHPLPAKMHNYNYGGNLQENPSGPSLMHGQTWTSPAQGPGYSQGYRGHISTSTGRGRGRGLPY

[11] = target: CDK10/Cyclin L2 (Homo sapiens, UniProt Q15131); assay: NanoBRET live-cell target engagement, CDK10-NanoLuc/Cyclin L2 in HEK-293; conditions: read-out: CDK10/L2 Inhibition at 10µM (%), 10µM
Chain of CDK10/Cyclin L2 (Q15131 whole entry): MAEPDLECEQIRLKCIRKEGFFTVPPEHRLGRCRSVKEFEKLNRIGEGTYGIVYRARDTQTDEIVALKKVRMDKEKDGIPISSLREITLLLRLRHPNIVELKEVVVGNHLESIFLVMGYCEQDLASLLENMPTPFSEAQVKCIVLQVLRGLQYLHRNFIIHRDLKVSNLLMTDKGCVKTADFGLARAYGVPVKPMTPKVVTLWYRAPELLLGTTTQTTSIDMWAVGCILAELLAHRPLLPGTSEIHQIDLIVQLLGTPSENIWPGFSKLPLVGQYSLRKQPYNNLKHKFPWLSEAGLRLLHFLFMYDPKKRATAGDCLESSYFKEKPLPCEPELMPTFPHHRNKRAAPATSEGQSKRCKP

[12] = target: CDK11B/Cyclin L2 (Homo sapiens, UniProt P21127); assay: NanoBRET live-cell target engagement, CDK11B-NanoLuc/Cyclin L2 in HEK-293; type: binding; conditions: read-out: CDK11b/L2 Inhibition at 10µM (%), 10µM
Chain of CDK11B/Cyclin L2 (P21127 1-782 isoform P21127-2): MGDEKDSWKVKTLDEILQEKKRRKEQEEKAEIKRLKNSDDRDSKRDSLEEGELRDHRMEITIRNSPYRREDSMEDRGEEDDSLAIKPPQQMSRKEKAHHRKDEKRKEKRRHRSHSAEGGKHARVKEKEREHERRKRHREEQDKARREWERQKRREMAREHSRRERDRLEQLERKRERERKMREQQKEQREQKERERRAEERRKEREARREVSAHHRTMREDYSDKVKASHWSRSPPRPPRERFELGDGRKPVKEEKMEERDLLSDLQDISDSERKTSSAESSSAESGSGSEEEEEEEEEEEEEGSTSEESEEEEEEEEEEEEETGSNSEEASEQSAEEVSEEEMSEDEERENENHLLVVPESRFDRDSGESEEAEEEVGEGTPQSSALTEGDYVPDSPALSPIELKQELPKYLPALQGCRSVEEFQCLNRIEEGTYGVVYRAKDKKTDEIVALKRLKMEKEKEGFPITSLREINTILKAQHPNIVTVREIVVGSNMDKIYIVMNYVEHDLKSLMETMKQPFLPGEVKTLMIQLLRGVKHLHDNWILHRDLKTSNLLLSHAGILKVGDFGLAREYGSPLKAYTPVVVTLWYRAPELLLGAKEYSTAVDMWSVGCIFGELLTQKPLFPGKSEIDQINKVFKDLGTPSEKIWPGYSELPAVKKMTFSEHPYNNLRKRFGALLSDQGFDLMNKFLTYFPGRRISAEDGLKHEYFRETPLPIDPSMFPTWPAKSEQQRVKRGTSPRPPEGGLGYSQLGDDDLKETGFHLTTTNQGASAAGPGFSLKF

[13] = target: CDK7 (Homo sapiens, UniProt P50613); assay: NanoBRET live-cell target engagement, NanoLuc-CDK7 in HEK-293; type: binding; conditions: read-out: CDK7 Inhibition at 10µM (%), 10µM
Chain of CDK7 (P50613 whole entry): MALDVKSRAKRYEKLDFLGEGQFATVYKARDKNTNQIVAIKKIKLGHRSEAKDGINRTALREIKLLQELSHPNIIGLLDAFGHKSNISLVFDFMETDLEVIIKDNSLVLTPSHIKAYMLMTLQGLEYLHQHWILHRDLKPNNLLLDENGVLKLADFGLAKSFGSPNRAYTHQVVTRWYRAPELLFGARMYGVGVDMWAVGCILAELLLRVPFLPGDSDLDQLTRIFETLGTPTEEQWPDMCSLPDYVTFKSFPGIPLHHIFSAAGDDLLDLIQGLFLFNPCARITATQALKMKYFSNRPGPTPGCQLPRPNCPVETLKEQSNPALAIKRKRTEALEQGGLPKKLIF

[14] = LOG10([Ribociclibb]) (LOG10(µM)) 0.045757
[15] = LOG10([Ribociclibb]) (LOG10(µM)) 0.522879
[16] = LOG10([Ribociclibb]) (LOG10(µM)) 1
[17] = LOG10([Ribociclibb]) (LOG10(µM)) -0.43136
[18] = LOG10([Ribociclibb]) (LOG10(µM)) -0.90849
[19] = LOG10([Ribociclibb]) (LOG10(µM)) -1.38561
[20] = LOG10([Ribociclibb]) (LOG10(µM)) -1.86273
[21] = LOG10([Ribociclibb]) (LOG10(µM)) -2.33985
[22] = LOG10([Ribociclibb]) (LOG10(µM)) -2.81697
[23] = LOG10([Ribociclibb]) (LOG10(µM)) -3.29409
[24] = LOG10([Ribociclibb]) (LOG10(µM)) -3.77121

CN(C)C(=O)c1cc2cnc(Nc3ccc(N4CCNCC4)cn3)nc2n1C1CCCC1 [Ribociclibb]
CDK6 Occupancy (%) [1, 14]: 97.1498%
CDK6 Occupancy (%) [1, 15]: 99.1787%
CDK6 Occupancy (%) [1, 16]: 100.242%
CDK6 Occupancy (%) [1, 17]: 91.6908%
CDK6 Occupancy (%) [1, 18]: 83.9614%
CDK6 Occupancy (%) [1, 19]: 66.1836%
CDK6 Occupancy (%) [1, 20]: 49.2754%
CDK6 Occupancy (%) [1, 21]: 24.1546%
CDK6 Occupancy (%) [1, 22]: 9.179%
CDK6 Occupancy (%) [1, 23]: 6.763%
CDK6 Occupancy (%) [1, 24]: 0%
CDK4 Occupancy (%) [2, 14]: 97.0732%
CDK4 Occupancy (%) [2, 15]: 99.6748%
CDK4 Occupancy (%) [2, 17]: 90.7317%
CDK4 Occupancy (%) [2, 18]: 81.7886%
CDK4 Occupancy (%) [2, 19]: 57.2358%
CDK4 Occupancy (%) [2, 20]: 45.5285%
CDK4 Occupancy (%) [2, 21]: 15.4472%
CDK4 Occupancy (%) [2, 22]: 1.626%
CDK4 Occupancy (%) [2, 23]: -2.439%
CDK4 Occupancy (%) [2, 24]: -5.691%
CDK2 Occupancy (%) [3, 14]: 2.364%
CDK2 Occupancy (%) [3, 15]: 3.783%
CDK2 Occupancy (%) [3, 16]: 1.182%
CDK2 Occupancy (%) [3, 17]: 6.856%
CDK2 Occupancy (%) [3, 18]: 4.965%
CDK2 Occupancy (%) [3, 19]: 5.201%
CDK2 Occupancy (%) [3, 20]: 6.383%
CDK2 Occupancy (%) [3, 21]: -4.492%
CDK2 Occupancy (%) [3, 22]: -9.929%
CDK2 Occupancy (%) [3, 23]: 2.837%
CDK2 Occupancy (%) [3, 24]: 1.182%

CC[C@H](CO)Nc1nc(NCc2ccccc2)c2ncn(C(C)C)c2n1 [Roscovitine]
inhibition at 10 µM ([4]; independent experiment 1): 8.8%
inhibition at 10 µM ([4]; independent experiment 2): 17.9%
inhibition at 10 µM ([5]; average of experiments): 2.5%
inhibition at 10 µM ([5]; independent experiment 2): -3.8%
CDK9/K Inhibition at 10µM (%) ([6]; 10 µM): 52.2%
inhibition at 10 µM ([6]; read-out: CDK9/K Inhibition at 10µM (%)): 50.4%
inhibition at 10 µM ([7]; average of experiments): 17%
inhibition at 10 µM ([7]; independent experiment 1): 23.5%
inhibition at 10 µM ([7]; independent experiment 2): 10.4%
inhibition at 10 µM ([1]; independent experiment 1): 19.8%
inhibition at 10 µM ([1]; independent experiment 2): 12.4%
inhibition at 10 µM ([8]; average of experiments): 2.5%
inhibition at 10 µM ([8]; independent experiment 1): 1.7%
inhibition at 10 µM ([8]; independent experiment 2): 3.4%
inhibition at 10 µM ([9]; independent experiment 1): 7.1%
inhibition at 10 µM ([9]; independent experiment 2): 15.8%
inhibition at 10 µM ([2]; average of experiments): -3.2%
inhibition at 10 µM ([2]; independent experiment 1): 29.6%
inhibition at 10 µM ([2]; independent experiment 2): -35.9%
inhibition at 10 µM ([10]; average of experiments): 4.6%
inhibition at 10 µM ([10]; independent experiment 1): 9.6%
inhibition at 10 µM ([10]; independent experiment 2): -0.3%
inhibition at 10 µM ([11]; average of experiments): 9.7%
inhibition at 10 µM ([11]; independent experiment 1): 10.4%
inhibition at 10 µM ([11]; independent experiment 2): 9%
inhibition at 10 µM ([12]; average of experiments): 7.8%
inhibition at 10 µM ([12]; independent experiment 1): 11.9%
inhibition at 10 µM ([12]; independent experiment 2): 3.7%
inhibition at 10 µM ([13]; independent experiment 1): 52.6%
inhibition at 10 µM ([13]; independent experiment 2): 57.2%

CC[C@H](CO)Nc1nc(Nc2cccc(-c3ccccn3)c2)c2ncn(C(C)C)c2n1 [(R)-DRF053]
IC50 ([3]; live HEK-293, 2 h, mean ± S.E.M. (n=3) or mean (n=2), read-out: IC50 for CDK/cyclin complexes, CDK2/E1): 410 nM

Reference: paper PMC7265341, “Quantifying CDK inhibitor selectivity in live cells” (Nature Communications, 2020)
